Entries after “also recorded” stand apart in the source; their conditions may differ. * marks the point of attachment. C16 alkyl = CCCCCCCCCCCCCCCC*
Experiments:
Conditions in all cases: 10 days post-augmentation; compared between groups
[1] = test system: Rat Bladder Augmentation Model; assay: Bladder tissue collagen quantification (Masson's Trichrome); format: in vivo
Protocol: (§1) Athymic female rats (weighing ˜200 g and 8-10 weeks old; National Cancer Institute Animal Production Program) underwent bladder augmentation (ref. 15; herein incorporated by reference in its entirety). Athymic rats were chosen for this study to solely examine the innate immune response to inflammation without influence of the adaptive immune response. In order to induce anesthesia, animals were given intraperitoneal injections of 60 mg/kg ketamine and 5 mg/kg xylazine. A second injection consisting of Buprenex (1 mg/kg) was administered subcutaneously to alleviate any pain/discomfort during and following surgical procedures. An approximate 1.5 cm midline vertical skin incision was created to expose the abdominal fascia and muscles. This was immediately followed by the separation of the wall leading to the identification of the bladder. An approximate 70% supratrigonal cystectomy was performed from anterior to posterior creating a clamshell. Immediately prior to bladder augmentation procedures, samples of the pro-inflammatory biological scaffold, small intestinal submucosa (SIS (0.5×0.5 cm); Cook Biotech.) (refs. 12,13,16; herein incorporated by reference in their entireties) were thoroughly dip-coated separately in one of the previously described AIF-PAs following gelation procedures. The sections of SIS were dip-coated for approximately 20 seconds and allowed to adhere to the SIS for an additional 30 seconds. Dip-coating procedures were performed at room temperature in air. The cystectomized bladder defect was then augmented with: 1) SIS (non-AIF-PA coated SIS; n=8 animals over both time-points); 2) AIF-PA1 coated SIS (denoted as SIS/AIF-PA1; n=11 animals over both time-points); 3) AIF-PA2 coated SIS (denoted as SIS/AIF-PA2; n=8 animals over both time-points); 4) AIF-PA3 coated SIS (denoted as SIS/AIF-PA3; n=3); 5) AIF-PA4 coated SIS (denoted as SIS/AIF-PA4; n=3 animals); 6) AIF-PA5 coated SIS (denoted as SIS/AIF-PA5; n=3 animals); and 7) AIFC-PA6 coated SIS (denoted as SIS/AIFC-PA6; n=9 animals over both time-points). The bladder was finally covered with omentum after being closed in a watertight manner utilizing 7-0 polyglactin suture. The abdominal wall was then closed in a single layer with 5-0 ethibond running suture and the skin re-approximated with 9 mm autoclips. Each group was sacrificed at 10 day and 5 week time-points.
Explanted bladder specimens encompassing the entire thickness of the bladder were isolated immediately following euthanasia and processed (ref. 15; herein incorporated by reference in its entirety). Specimens were fixed in a 10% buffered formalin phosphate (Fisher Scientific, Inc.) solution followed by a series of graded ethanol exchanges then embedded in paraffin (Fisher Scientific). Embedded tissues were sectioned onto glass slides at a thickness of 10 μm using a RM2125 RT Microtome (Leica) onto glass slides and subjected to staining with Masson's Trichrome (Sigma-Aldrich Corp.) reagent. The paraffin was removed from tissue containing slides using a hot plate at 62° C. for 6 minutes and was followed by treatment with xylenes, graded ethanol washes and DI water. Slides were placed in Bouin's solution (Sigma-Aldrich Corp.) for approximately 15 min then rinsed under running tap water. The samples were then stained 5 minutes with Hematoxylin and rinsed with running water and subsequently stained with Scarlet-Acid Fuchsin (Sigma-Aldrich Corp.). Slides were rinsed again with DI water and placed into a mixture of PTA/PMA, followed by Aniline Blue solution and a 1% acetic acid wash. Finally, slides were placed in 95-100% ethanol and rinsed in xylene. Following air drying, a coverslip was placed over the specimen sample and secured with Permaslip (Alban Scientific Inc).
Bladder tissue specimens were evaluated for collagen content (refs. 13,15,17; herein incorporated by reference in their entireties). […]

[2] = test system: Rat Bladder Augmentation Model; assay: Blood vessel quantification in areas of bladder tissue regeneration; format: in vivo
Protocol: as §1
Trichrome sample images were opened with Adobe Photoshop CS3 and were initially characterized utilizing a Nikon Eclipse 50i Microscope in addition to Spot Advanced Imaging Software. Vessel numbers were quantified utilizing the pen tool based upon n=10 images per graft in regenerated areas. Individual vessels were selected manually and subsequently quantified using the image histogram tool to acquire pixel density for each vessel. Data is represented as mean number of vessels/mm^2 (means±SE).

[3] = test system: CD68+ macrophages; assay: Immunofluorescence quantification of CD68+ macrophages in regenerated bladder tissue; format: in vivo, rat
Protocol: as §1
(§2) Tissue sections comprised of SIS alone, SIS/AIF-PA1, SIS/AIF-PA2, and SIS/AIF-PA6 augmentations were subjected to immunofluorescence staining by initially undergoing antigen retrieval which consisted of 15 min of boiling in citrate buffer (0.01M citrate solution, pH 6.0 with 0.05% Tween-20) followed by cooling at room temperature for approximately 20 minutes. The antibody staining process consisted of a blocking step for 15 min in bovine serum albumin (BSA, 5 mg/ml) followed by a 40 minutes incubation at room temperature with the primary antibody. After washing with DPBS, slides were incubated for 30 min with a secondary antibody and eventually rinsed with DPBS and air dried. Slides were mounted with Vectashield (Vector Laboratories). Primary antibodies were directed against epitopes for the inflammatory markers CD68 (macrophage) (refs. 18,19; herein incorporated by reference in their entireties) MPO (neutrophil) (ref. 20; herein incorporated by reference in its entirety) or the inflammation-related proteins IL1β, TNFα, IL-10, IL-13, CD206 (M2 macrophage) (refs. 21-25; herein incorporated by reference in their entireties) and CD86 (M1 macrophage) (ref. 26; herein incorporated by reference in its entirety). Antibodies directed against the ECM in regenerating bladder tissue (including COL4A3 and fibronectin) were also utilized. Alexa Red 555 or FITC conjugated secondary antibodies (Molecular Probes) were utilized for visualization (ref. 15; herein incorporated by reference in its entirety). […]

[4] = test system: MPO+ neutrophils; assay: Immunofluorescence quantification of MPO+ neutrophils in regenerated bladder tissue; format: in vivo, rat
Protocol: as §1, §2

Substance | collagen levels, in words [1] | blood vessel formation, in words [2] | CD68+ macrophage levels, in words [3] | MPO+ neutrophil levels, in words [4]
C16-VVVAAAEEEKVLDPVKG (SEQ ID NO:3) ({C16 alkyl}-VVVAAAEEEKVLDPVKG-NH2) [SIS/AIF-PA3, anti-inflammatory peptide amphiphile, tested dip-coated on small intestinal submucosa (SIS) scaffold] | lower mean collagen levels | greater numbers of vessels/mm2 | comparable macrophage levels to SIS/AIF-PA1; also recorded: significantly lower | 
C16-VVVAAAEEEDPVKG (SEQ ID NO:5) ({C16 alkyl}-VVVAAAEEEDPVKG-NH2) [SIS/AIF-PA5, anti-inflammatory peptide amphiphile, tested dip-coated on small intestinal submucosa (SIS) scaffold] | not significantly different from those of control groups | least level of blood vessel formation; also recorded: not significantly different from those of control groups |  | 
C16-VVVAAAEEEKVLDGQDP (SEQ ID NO:4) ({C16 alkyl}-VVVAAAEEEKVLDGQDP-NH2) [SIS/AIF-PA4, anti-inflammatory peptide amphiphile, tested dip-coated on small intestinal submucosa (SIS) scaffold] | lower mean collagen levels | greater numbers of vessels/mm2 | significantly lower | significantly lower

From patent US11161876B2, “Anti-inflammatory nanofibers” (Northwestern University, priority 2015, dated 2021)
